US11510886B2, “Metformin amino acid compounds and methods of using the same” (Laboratorios Silancs S.A. DE C.V., priority 2016, dated 2022)
Entries after “also recorded” stand apart in the source; their conditions may differ. Counter-ions that a name gives are not always drawn. Like-named read-outs stand apart in the source and are kept apart here.

Assays:
[1] = tested on: GLUT4; test: GLUT4-GFP transport to plasma membrane in NIH-3T3-L1 adipocytes; type: cell-based, Mice; details: confocal microscopy (FIG. 75)
Experimental: FIG. 75. […] NIH-3T3-L1 cells were transfected with a construction expressing GLUT4 fused with Green Fluorescent Protein-GFP (Addgene). Transfected cells were selected by flow cytometry, taking advantage of GFP fluorescence, and cultured in DMEM supplemented with 10% FBS. […] Images were analyzed with the WCIF ImageJ software to detect colocalization of GPBP (red) with GLUT4 (green). […].

[2] = tested on: LKB1 and GPBP; test: LKB1 and GPBP distribution in C2C12 myotubes (confocal microscopy); type: cell-based, Mice; details: 10 mM, 3 hours (FIG. 71)
Experimental: FIG. 71. […] C2C12 cells were differentiated to myotubes for 5 days by incubation in DMEM medium, supplemented with 2% horse serum; […]. Cells were washed with PBS (3×5 minutes) and incubated with antibodies against mouse IgG, conjugated with Alexa Fluor 488, and against goat IgG, conjugated with Alexa Fluor 546 (Molecular Probes) for 1 hour at RM in the dark. In this and in the following Figures showing confocal microscopy of cell cultures, all antibodies used were diluted in blocking solution. After incubation with antibodies, cells were washed with PBS (3×5 minutes) and mounting medium (Dako) in glass slides. Preparations were visualized with confocal microscopy and obtained images were analyzed with the WCIF ImageJ software as to detect colocalization points between GPBP and LKB1. GPBP appears in green, LKB1 in red, and colocalization points indicating similar and corresponding expression levels in both proteins appear in white.

[3] = tested on: C2C12 myotubes; test: Glucose concentration in C2C12 myotube culture medium; type: cell-based, Mice; details: for glucose consumption in normoglycemia: glucose adjusted to 100 mg/100 mL, 10 mM (FIGS. 68A-B)
Experimental: FIG. 67. Hypoglycemic activity ex vivo. Glucose concentration in myocyte culture medium, treated with the control, SLN1, or SLN10. […]. The final glucose concentration in the culture medium was determined with a Glucocard (Arkray). […].
Glucose concentration in culture media was determined with a Glucocard (Arkray). […].
For this purpose, the evolution of glucose uptake was studied in the culture medium of myotubes in response to different molecules studied (FIG. 67).

[4] = molecular target: T1, GPBP, LKB1/STRADα/MO25, AMPK, AS160 (Homo sapiens, UniProt Q9Y5P4); test: In vitro phosphorylation of GPBP with LKB1 complex, AMPK and AS160
T1 sequence (Q9Y5P4 1-624): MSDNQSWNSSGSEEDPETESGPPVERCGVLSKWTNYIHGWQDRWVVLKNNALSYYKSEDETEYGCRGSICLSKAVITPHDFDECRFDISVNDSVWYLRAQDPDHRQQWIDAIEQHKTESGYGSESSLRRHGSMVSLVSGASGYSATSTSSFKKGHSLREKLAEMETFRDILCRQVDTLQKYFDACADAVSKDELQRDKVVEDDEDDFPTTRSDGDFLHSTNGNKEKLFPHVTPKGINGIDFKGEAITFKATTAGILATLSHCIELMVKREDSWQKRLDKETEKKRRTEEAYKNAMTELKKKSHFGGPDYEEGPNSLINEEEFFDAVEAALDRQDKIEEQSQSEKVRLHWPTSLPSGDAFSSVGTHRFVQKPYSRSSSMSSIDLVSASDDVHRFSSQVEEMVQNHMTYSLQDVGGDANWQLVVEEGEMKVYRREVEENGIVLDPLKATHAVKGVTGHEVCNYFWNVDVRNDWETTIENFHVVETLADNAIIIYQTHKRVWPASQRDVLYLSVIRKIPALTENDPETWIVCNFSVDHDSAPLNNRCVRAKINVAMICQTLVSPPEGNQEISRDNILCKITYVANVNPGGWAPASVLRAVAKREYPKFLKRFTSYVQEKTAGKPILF
Description: Reactions were stopped with a reducing loading buffer, analyzed by SDS-PAGE, and electrotransferred to PVDF membrane. Membranes were exposed to autoradiography during the indicated exposition times (exp.). Arrows show the identity of the bands observed in autoradiographs.
Arrows and lines to the right of the image show the identity of phosphorylated polypeptides. Upper images and those in the middle come from autoradiographs taken at several exposure times.
To understand this phenomenon at the molecular level, we conducted in vitro phosphorylation experiments with GPBP and the commercial protein complex LKB1/STRADα/MO25 (Millipore) (FIG. 72). STRADα and MO25 are supporters necessary to activate LKB1. […] It cannot be excluded, however, that the simple interaction of kinases activates corresponding autophosphorylation processes.
To further explain the above results, a more physiological approach in the in vitro assays was performed. A combination of LKB1/STRADα, GPBP, and AMPK/AS160 was used, i.e., each kinase was added with its own substrate except GPBP, which acted as both an enzyme and substrate at the same time (autophosphorylation) (FIG. 73).

[5] = tested on: RAW264.7 macrophages; test: IL-10 expression in RAW264.7 macrophages stimulated with LPS and IFN-γ; type: cell-based
Experimental: FIG. 92. […]. After several incubation times, cells were processed as shown in FIG. 79 for RT-qPCR analysis, and IL-10 relative quantification (RQ) was determined with a specific probe (Taqman®, Life Technologies) using HPRT-1 as a normalizer and non-stimulated cells as a reference point (time 0). In the Table in FIG. 92, the area under the curve (AUC) is indicated for each of the series.
FIG. 93. The IL-10 expression depends on GPBP-1. […]. […] The silencing efficacy was tested by Western blot with RAW264.7 (WT) and pSi-GPBP-1 cell lysates (50 μg), using specific antibodies (right).
FIG. 94. The IL-10 expression depends on cGPBP-1. In A, an assay scheme is shown; […]. […] In B, the relative expression of IL-10 in RAW264.7 macrophages cultured with conditioned media, obtained as specified in A, is shown. The analysis was carried out by quantitative RT and PCR, using HPRT-1 as a normalizer. In this case, the reference point were cells treated with a conditioned medium in absence of N26 (RQ=1 value), and the increased IL-10 expression was verified; the analysis included non-stimulated cells cultured in a fresh, non-conditioned medium (cells).

Question: Which results are given for CN(C)C(=N)N=C(N)N [Metformin hydrochloride, metformin hydrochloride, reference compound]?
Answer: distribution of GPBP and GLUT4 in L1 adipocytes [1]: low presence in secretory vesicles; Body weight (g) On administration day (rat, in vivo, 250 mg/kg): 190.39 ± 9.88 g; Body weight (g) On distribution day (rat, in vivo, 250 mg/kg): 186.93 ± 10.39 g; Body weight (g) On distribution day (rat, in vivo, 750 mg/kg): 189.03 ± 15.13 g; distribution of LKB1-GPBP aggregates [2]: moved LKB1-GPBP aggregates from peripheral positions to areas around the nuclei; glucose consumption in normoglycemia [3]: equally induce glucose consumption; GPBP autophosphorylation in presence of LKB1 mix, AMPK and AS160 [4]: activates GPBP phosphorylation; also recorded: stimulated GPBP autophosphorylation; IL-10 expression ([5]; 10 mM, LPS and IFN-γ (FIG. 92)): increase IL-10 expression; dependence of IL-10 expression on GPBP expression ([5]; pSi-GPBP-1 macrophages (FIG. 93)): virtually GPBP independent

Question: Which results are given for metformin lysinate?
Answer: distribution of GPBP and GLUT4 in L1 adipocytes [1]: widely located in the plasma membrane; blood glucose level of animal ID93 (750 mg/kg, fifth day, six hours after the glucose overload): 16 mg/dL; Body weight (g) On administration day (Groups B-K, 250 mg/kg, Mean ± SD): 189.83 ± 11.17 g; Body weight (g) On distribution day (Groups B-K, 250 mg/kg, before dosing, Mean ± SD): 184.42 ± 11.94 g; Body weight (g) On distribution day (Groups L-U, 750 mg/kg, before dosing, Mean ± SD): 186.73 ± 8.05 g; Body weight (g) On first administration day (Groups L-U, 750 mg/kg, first column of this head, Mean ± SD): 203.38 ± 13.38 g; Body weight (g) On first administration day (Groups L-U, 750 mg/kg, second column of this head, Mean ± SD): 192.83 ± 9.65 g; mortality and clinical signs (glucokinetic groups, 750 mg/kg for five days, 750 mg/kg): hypothermia, lack of activity and tear excess; mortality and clinical signs (glucokinetic groups, 750 mg/kg for five days, listed as metformin lysinate, 750 mg/kg): severe hypoglycemia; mortality and clinical signs (pharmacokinetic assay, single 250 mg/kg): respiratory noises; distribution of LKB1-GPBP aggregates ([2]; listed as SLN10): seems to induce decolocalization in GPBP and LKB1; also recorded: delocalization of LKB1 and virtual absence of kinase in granular aggregates; glucose consumption in normoglycemia [3]: equally induce glucose consumption; anti-hyperglycaemic activity (glucose in myotube medium) ([3]; initial glucose 450 mg/100 mL, 10 mM, last 18 hours (FIG. 67), listed as SLN10): greater effect than SLN1; also recorded: higher than that of compound SLN1; GPBP autophosphorylation in presence of LKB1 mix, AMPK and AS160 ([4]; FIG. 73, listed as SLN10): inhibit it increasingly; also recorded: inhibited it progressively; incorporation of phosphate by LKB1/STRADα ([4]; GPBP present in the reaction mixture): inhibited the incorporation of phosphate by LKB1/STRADα efficiently; IL-10 expression [5]: increase IL-10 expression; also recorded: markedly superior; dependence of IL-10 expression on GPBP expression [5]: depended largely on the GPBP expression
